In US20220340547A1, “INDOLE DERIVATIVE-CONTAINING INHIBITOR, PREPARATION METHOD THEREFOR AND APPLICATION THEREOF” (Shanghi Hansoh Biosoh Biomedical Co., Ltd., priority 2019, published 2022) one finds IC50 and GI50 data, which are given here for 18 compounds.

One may read the IC50 as the point on the concentration scale where inhibition reaches its midpoint.

One experiment addresses EGFR D770_N771insNPG (Homo sapiens, UniProt P00533, INS770NPG). In words: TR-FRET inhibition of kinase activity of EGFR exon 20 insertion mutation. Type of experiment: biochemical. From the text: Determination of the Inhibitory Effect of the Compound of the Present Invention on the Kinase Activity of EGFR Exon 20 Insertion Mutation
Experimental objective: The objective of this test example is to determine the inhibitory effect of the compound on the kinase activity of EGFR exon 20 insertion mutation.
Experimental process: The experiment applied the TR-FRET (time-resolved fluorescence resonance energy transfer) method to study the inhibitory effect of the compound on the kinase activity of EGFR exon 20 insertion mutation. The experiment was carried out in a 384-well plate. Experimental buffer (50 mM HEPES, 1 mM EGTA, 10 mM MgCl2, 2 mM DTT, 0.01% Tween-20) was formulated. The compound was diluted in gradient to different concentrations with the experimental buffer. 2.5 μL of the solution was added to each well of the 384-well plate. 2.5 μL of diluted EGFR kinase solution (0.001-0.5 nM) was added, and the plate was incubated at room temperature for 10 minutes. 5 μL of ULight-poly GT/ATP mixed solution was added, and the plate was incubated at room temperature for 30 to 60 minutes. 5 μL of EDTA stop solution and 5 μL of Eu-labeled antibody detection solution were added, and the plate was incubated at room temperature for 1 hour.
(§1) Experimental Data Processing Method:
The concentration and inhibition rate were fitted to a nonlinear regression curve by Graphpad Prism software to obtain the IC50 value.

The target in experiment [1] is Ba/F3 EGFR-D770-N771ins_SVD (Homo sapiens, UniProt P00533, DUP768-770, cells depend on it). Briefly: Proliferation of Ba/F3 EGFR mutant cell line (CellTiter-Glo). Type of experiment: cell-based, mouse. The following applies: 72 h to 144 h, read-out: Ba/F3 EGFR-D770-N771ins_SVD IC50. Here is the method: Determination of the Inhibitory Effect of the Compound of the Present Invention on the Proliferation of Ba/F3 EGFR Mutant Cell Line and A431 Cell Line
Sequence of Ba/F3 EGFR-D770-N771ins_SVD (P00533 with tags, fused parts or gaps DUP768-770): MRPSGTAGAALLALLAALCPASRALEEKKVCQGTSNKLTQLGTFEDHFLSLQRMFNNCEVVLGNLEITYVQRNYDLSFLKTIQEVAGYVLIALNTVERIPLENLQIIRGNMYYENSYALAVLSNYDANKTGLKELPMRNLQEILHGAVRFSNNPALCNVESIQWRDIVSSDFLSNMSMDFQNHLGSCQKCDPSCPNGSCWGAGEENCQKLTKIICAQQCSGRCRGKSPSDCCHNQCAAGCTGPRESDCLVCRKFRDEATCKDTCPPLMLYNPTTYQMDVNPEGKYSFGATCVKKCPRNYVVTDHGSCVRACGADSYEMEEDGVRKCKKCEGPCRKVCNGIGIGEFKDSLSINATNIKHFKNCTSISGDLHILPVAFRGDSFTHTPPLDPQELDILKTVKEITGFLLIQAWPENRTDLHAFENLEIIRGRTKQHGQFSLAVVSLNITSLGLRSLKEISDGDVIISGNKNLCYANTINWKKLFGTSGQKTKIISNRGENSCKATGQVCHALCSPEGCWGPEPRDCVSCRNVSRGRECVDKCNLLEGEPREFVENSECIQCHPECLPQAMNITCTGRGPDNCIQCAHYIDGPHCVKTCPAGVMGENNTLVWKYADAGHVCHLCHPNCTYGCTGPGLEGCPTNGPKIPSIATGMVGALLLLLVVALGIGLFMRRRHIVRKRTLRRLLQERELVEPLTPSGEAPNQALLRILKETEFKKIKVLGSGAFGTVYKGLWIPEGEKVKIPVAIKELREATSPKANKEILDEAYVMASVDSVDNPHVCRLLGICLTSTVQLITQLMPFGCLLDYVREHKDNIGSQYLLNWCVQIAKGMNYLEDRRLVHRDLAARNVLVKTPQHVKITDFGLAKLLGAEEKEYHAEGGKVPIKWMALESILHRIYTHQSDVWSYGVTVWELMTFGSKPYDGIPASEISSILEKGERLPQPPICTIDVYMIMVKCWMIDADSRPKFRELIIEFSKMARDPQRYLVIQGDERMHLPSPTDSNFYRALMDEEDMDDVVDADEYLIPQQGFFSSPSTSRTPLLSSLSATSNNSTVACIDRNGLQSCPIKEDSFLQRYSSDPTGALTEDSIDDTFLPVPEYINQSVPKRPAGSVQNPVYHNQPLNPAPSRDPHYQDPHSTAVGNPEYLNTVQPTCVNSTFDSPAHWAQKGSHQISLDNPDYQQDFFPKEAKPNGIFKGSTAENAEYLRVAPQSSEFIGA
(§2) Experimental objective: The objective of this test example is to determine the inhibitory effect of the compound on the proliferation of Ba/F3 EGFR mutant cell line and A431 cell line
(§3) Experimental instruments: Microplate reader (BioTek Synergy H1), pipette (Eppendorf & Rainin).
Ba/F3 EGFR mutant cells were cultured, and harvested after reaching a suitable density. The cells were adjusted to an appropriate cell concentration with the complete medium. The cell suspension were spread on a 96-well plate (90 μL per well), and the plate was placed in a 37° C., 5% CO2 incubator overnight to let the cells adhere to the wall. Solutions of the compound at different concentrations were formulated with DMSO and culture medium. Solvent control was set. […] CellTiter-Glo solution was added and mixed well by shaking, and the plate was incubated in the dark for 10 minutes. The values were measured by BioTek Synergy H1 microplate reader.
as §1
(§4) The inhibition rate was calculated using the […] signal value. The concentration and inhibition rate were fitted to a nonlinear regression curve by Graphpad Prism software to obtain the IC50 value.
A general note: Cellular ATP, detected with luciferase, serves as a proxy for viable cell number.

Another experiment concerns A431 cell line. Briefly: Proliferation of A431 cell line (CellTiter-Glo). Type of experiment: cell-based. The following applies: Homo sapiens, A-431, 72 h. Here is the method:
Test Example 3. Determination of the Inhibitory Effect of the Compound of the Present Invention on the Proliferation of Ba/F3 EGFR Mutant Cell Line and A431 Cell Line
as §2, §3
A431 cells were cultured, and harvested after reaching a suitable density. The cells were adjusted to an appropriate cell concentration with the complete medium. The cell suspension were spread on a 96-well plate (90 μL per well), and the plate was placed in a 37° C., 5% CO2 incubator overnight to let the cells adhere to the wall. Solutions of the compound at different concentrations were formulated with DMSO and culture medium. Solvent control was set. The solution of the compound was added to the 96-well plate ([…]), and the plate was incubated in the 37° C., 5% CO2 incubator for 72 h. CellTiter-Glo solution was added and mixed well by shaking, and the plate was incubated in the dark for 10 minutes. The values were measured by BioTek Synergy H1 microplate reader.
as §1, §4

Structures are written as SMILES.

Sequence of EGFR D770_N771insNPG (P00533 with tags, fused parts or gaps INS770NPG limits assumed): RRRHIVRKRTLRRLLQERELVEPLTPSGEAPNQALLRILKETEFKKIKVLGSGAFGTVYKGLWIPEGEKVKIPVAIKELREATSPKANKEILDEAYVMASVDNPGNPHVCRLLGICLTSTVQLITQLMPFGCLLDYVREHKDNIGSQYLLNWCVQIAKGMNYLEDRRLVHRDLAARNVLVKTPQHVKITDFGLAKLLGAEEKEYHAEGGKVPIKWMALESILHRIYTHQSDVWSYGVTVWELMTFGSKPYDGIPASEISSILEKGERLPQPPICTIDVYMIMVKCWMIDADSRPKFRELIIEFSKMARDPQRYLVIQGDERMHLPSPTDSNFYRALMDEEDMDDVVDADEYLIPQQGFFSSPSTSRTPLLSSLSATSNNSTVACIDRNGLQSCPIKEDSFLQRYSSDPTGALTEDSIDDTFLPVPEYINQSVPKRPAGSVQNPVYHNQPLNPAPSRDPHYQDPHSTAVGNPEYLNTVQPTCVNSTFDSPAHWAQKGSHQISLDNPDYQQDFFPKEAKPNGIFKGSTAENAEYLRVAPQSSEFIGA

The compound `C=CC(=O)Nc1cc(Nc2ncc(C#N)c(-c3cn(C4CC4)c4ccccc34)n2)c(OC)cc1OCCN(C)C` [Example 113, N-(5-((5-Cyano-4-(1-cyclopropyl-1H-indol-3-yl)pyrimidin-2-yl)amino)-2-(2-(dimethylamino)ethoxy)-4-methoxyphenyl)acrylamide] had an IC50 against EGFR D770_N771insNPG of 0.7 nM.

For `C=CC(=O)Nc1cc(Nc2ncc(-c3cnn(C)c3)c(-c3cn(C4CC4)c4ccccc34)n2)c(OC)cc1N1C[C@H]2CN(C)C[C@H]2C1` [Example 43, N-(5-((4-(1-Cyclopropyl-1H-indol-3-yl)-5-(1-methyl-1H-pyrazol-4-yl)pyrimidin-2-yl)amino)-4-methoxy-2-((3aR,6aS)-5-methylhexahydropyrrolo[3,4-c]pyrrol-2(1H)-yl)phenyl)acrylamide], at EGFR D770_N771insNPG, the midpoint of inhibition, the IC50, lay at 0.29 nM. Moreover, in experiment [1], the GI50 came out at 21 nM.

The compound `C=CC(=O)Nc1cc(Nc2ncc(C#N)c(-c3cn(C4CC4)c4cc(F)ccc34)n2)c(OC)cc1N(C)CCN(C)C` [Example 114, N-(5-((5-Cyano-4-(1-cyclopropyl-6-fluoro-1H-indol-3-yl)pyrimidin-2-yl)amino)-2-((2-(dimethylamino)ethyl)(methyl)amino)-4-methoxyphenyl)acrylamide] returned an IC50 at EGFR D770_N771insNPG of 0.61 nM. Also, the GI50 in experiment [1] worked out at 42.5 nM. Turning to `C=CC(=O)Nc1cc(Nc2ncc(-c3ccc(F)cc3F)c(-c3cn(C4CC4)c4ccccc34)n2)c(OC)cc1N1C[C@H]2CN(C)C[C@H]2C1` [Example 69, N-(5-((4-(1-Cyclopropyl-1H-indol-3-yl)-5-(2,4-difluorophenyl)pyrimidin-2-yl)amino)-4-methoxy-2-((3aR,6aS)-5-methylhexahydropyrrolo[3,4-c]pyrrol-2(1H)-yl)phenyl)acrylamide], the GI50 in experiment [1] was determined as 40 nM. For the compound `C=CC(=O)Nc1cc(Nc2ncc(C#N)c(-c3cn(C4CC4)c4ccccc34)n2)c(OC)cc1N1CC[C@H](N(C)C)C1` [Example 77, (S)—N-(5-((5-cyano-4-(1-cyclopropyl-1H-indol-3-yl)pyrimidin-2-yl)amino)-2-(3-(dimethylamino)pyrrolidin-1-yl)-4-methoxyphenyl)acrylamide], half-maximal inhibition against EGFR D770_N771insNPG (IC50) required 0.91 nM. For the compound `C=CC(=O)Nc1cc(Nc2ncc(-c3cnn(C)c3)c(-c3cn(C4CC4)c4ccccc34)n2)c(OC)cc1N(C)CCN(C)C` [Example 85, N-(5-((4-(1-Cyclopropyl-1H-indol-3-yl)-5-(1-methyl-1H-pyrazol-4-yl)pyrimidin-2-yl)amino)-2-((2-(dimethylamino)ethyl)(methyl)amino)-4-methoxyphenyl)acrylamide], at EGFR D770_N771insNPG, the IC50 was 0.27 nM. In addition, the GI50 in experiment [1] came out at 17.4 nM. Take `CC#CC(=O)Nc1cc(Nc2ncc(C(=O)OC(C)C)c(-c3cn(C)c4ccccc34)n2)c(OC)cc1N(C)CC1CCCN1C` (centres unmarked) [Example 1, Isopropyl 2-((5-(but-2-ynamido)-2-methoxy-4-(methyl((1-methylpyrrolidin-2-yl)methyl)amino)phenyl)amino)-4-(1-methyl-1H-indol-3-yl)pyrimidine-5-carboxylate]: the IC50 in the experiment on A431 cell line came out at 537 nM. Further, the GI50 in experiment [1] was 76 nM. In the case of `C=CC(=O)Nc1cc(Nc2ncc(C#N)c(-c3cn(C4CC4)c4c(OC)cccc34)n2)c(OC)cc1N(C)CCN(C)C` [Example 119, N-(5-((5-Cyano-4-(1-cyclopropyl-7-methoxy-1H-indol-3-yl)pyrimidin-2-yl)amino)-2-((2-(dimethylamino)ethyl)(methyl)amino)-4-methoxyphenyl)acrylamide], it took 0.49 nM to reach half-maximal inhibition at EGFR D770_N771insNPG (IC50). The GI50 in experiment [1] came out at 45.4 nM. With `C=CC(=O)Nc1cc(Nc2ncc(-c3ccnn3C)c(-c3cn(C4CC4)c4ccccc34)n2)c(OC)cc1N1C[C@H]2CN(C)C[C@H]2C1` [Example 70, N-(5-((4-(1-Cyclopropyl-1H-indol-3-yl)-5-(1-methyl-1H-pyrazol-5-yl)pyrimidin-2-yl)amino)-4-methoxy-2-((3aR,6aS)-5-methylhexahydropyrrolo[3,4-c]pyrrol-2(1H)-yl)phenyl)acrylamide], the GI50 in experiment [1] was 47.4 nM. As for `C=CC(=O)Nc1cc(Nc2ncc(-c3cnn(C)c3)c(-c3cn(C4CC4)c4ccccc34)n2)c(OC)cc1N1C[C@H]2CCN(C)[C@H]2C1` [Example 68], on EGFR D770_N771insNPG, the IC50 stood at 0.17 nM. The GI50 in experiment [1] was found to be 15.4 nM. For `C=CC(=O)Nc1cc(Nc2ncc(C#N)c(-c3cn(C4CC4)c4ccccc34)n2)c(OC)cc1N1CC(N(C)C)C1` [Example 74, N-(5-((5-Cyano-4-(1-cyclopropyl-1H-indol-3-yl)pyrimidin-2-yl)amino)-2-(3-(dimethylamino)azetidin-1-yl)-4-methoxyphenyl)acrylamide], the IC50 at EGFR D770_N771insNPG is 0.64 nM. With `C=CC(=O)Nc1cc(Nc2ncc(C#N)c(-c3cn(C4CC4)c4ncccc34)n2)c(OC)cc1N(C)CCN(C)C` [Example 139, N-(5-((5-Cyano-4-(1-cyclopropyl-1H-pyrrolo[2,3-b]pyridin-3-yl)pyrimidin-2-yl)amino)-2-((2-(dimethylamino)ethyl)(methyl)amino)-4-methoxyphenyl)acrylamide], at EGFR D770_N771insNPG, the midpoint of inhibition, the IC50, lay at 0.68 nM. `C=CC(=O)Nc1cc(Nc2ncc(C(=O)OC(C)C)c(-c3cn(C)c4ccccc34)n2)c(OC)cc1N1CC2(CN(C)C2)C1` [Example 26, Isopropyl 2-((5-acrylamido-2-methoxy-4-(6-methyl-2,6-diazaspiro[3.3]heptan-2-yl)phenyl)amino)-4-(1-methyl-1H-indol-3-yl)pyrimidine-5-carboxylate] registered a concentration for half-maximal inhibition (IC50) against EGFR D770_N771insNPG of 0.36 nM. As for `C=CC(=O)Nc1cc(Nc2ncc(C(=O)OC(C)C)c(-c3cn(C)c4ccccc34)n2)c(OC)cc1N1C[C@H]2CN(C)C[C@H]2C1` [Example 63, Isopropyl 2-((5-acrylamido-2-methoxy-4-((3aR,6aS)-5-methylhexahydropyrrolo[3,4-c]pyrrol-2(1H)-yl)phenyl)amino)-4-(1-methyl-1H-indol-3-yl)pyrimidine-5-carboxylate], the IC50 at EGFR D770_N771insNPG came to 0.62 nM. Still for that read-out and setting: the value for `C=CC(=O)Nc1cc(Nc2ncc(C#N)c(-c3cn(C4CC4)c4ccccc34)n2)c(OC)cc1N1C[C@@H]2CCN(C)[C@@H]2C1` [Example 110, N-(5-((5-Cyano-4-(1-cyclopropyl-1H-indol-3-yl)pyrimidin-2-yl)amino)-4-methoxy-2-((3aS,6aS)-1-methylhexahydropyrrolo[3,4-b]pyrrol-5(1H)-yl)phenyl)acrylamide] was 0.53 nM.

As for `C=CC(=O)Nc1cc(Nc2nccc(-c3cn(C)c4ccccc34)n2)c(OC)cc1N(C)CCN(C)C` [AZD9291, osimertinib, reference compound], the IC50 with A431 cell line was […]. For `C=CC(=O)Nc1cc(Nc2ncc(-c3cnn(C)c3)c(-c3cn(C4CC4)c4ccccc34)n2)c(OC)cc1N1C[C@@H]2CCN(C)[C@@H]2C1` [Example 65, N-(5-((4-(1-Cyclopropyl-1H-indol-3-yl)-5-(1-methyl-1H-pyrazol-4-yl)pyrimidin-2-yl)amino)-4-methoxy-2-((3aS,6aS)-1-methylhexahydropyrrolo[3,4-b]pyrrol-5(1H)-yl)phenyl)acrylamide], at EGFR D770_N771insNPG, the IC50 was 0.29 nM. The GI50 in experiment [1] is 15.1 nM. In turn, `C=CC(=O)Nc1cc(Nc2ncc(C#N)c(-c3cn(C4CC4)c4cc(OC)ccc34)n2)c(OC)cc1N(C)CCN(C)C` [Example 112, N-(5-((5-Cyano-4-(1-cyclopropyl-6-methoxy-1H-indol-3-yl)pyrimidin-2-yl)amino)-2-((2-(dimethylamino)ethyl)(methyl)amino)-4-methoxyphenyl)acrylamide] came in with an IC50 on EGFR D770_N771insNPG of 0.17 nM. Moreover, the GI50 in experiment [1] was found to be 26.7 nM.
